Reference: PMC5786306, “An AKAP-Lbc-RhoA interaction inhibitor promotes the translocation of aquaporin-2 to the plasma membrane of renal collecting duct principal cells” (PLoS ONE, 2018)

Legend:
[1] = test system: RhoA activity in IMCD cells; test: Rhotekin pull down of active RhoA in IMCD cells; format: cell-based, rat; conditions: 30 μM
Description: Western blotting for the detection of RhoA and Hsp90 and a Rhotekin pull down for the detection of active, GTP-bound RhoA were adapted from a procedure previously described by us. In brief, IMCD cells were cultured as described, DBcAMP and nystatin were removed on day twelve after seeding by exchange of medium for medium without the compounds. On the following day, Scaff10-8 was added to a final concentration of 30 μM or, as a control, the solvent DMSO (0.3%) for 1 h. Then cells were treated with forskolin (30 μM) for an additional 30 min, and subsequently incubated at 4°C in ice-cold Rhotekin buffer (50 mM Tris, pH 7.2; 1% (w/v) Triton X-100; 0.5% sodium deoxycholate; 500 mM NaCl; 10 mm MgCl2; PhosSTOP EASY (PhosSTOP EASY pack, Roche Diagnostics, Mannheim, DE; #REF04906837001), Complete mini EDTA-free (Complete mini EDTA-free, Roche Diagnostics, Mannheim, DE; #REF0693159001), for 10 min and lysed. Lysates (300–400 μg protein) were incubated with 300 μl of Rhotekin beads as previously described Proteins were eluted from beads with Laemmli buffer and analyzed by Western blotting. […]
Fig 10 Scaff10-8 inhibits activation of RhoA in primary IMCD cells. […] Signals were semiquantitatively analyzed by densitometry. […] Statistically significant differences were determined using one-way ANOVA with posthoc Bonferroni. […]

[2] = test system: AQP2 localization and F-actin in primary IMCD cells; test: Immunofluorescence microscopy of AQP2 and F-actin in primary IMCD cells; format: cell-based, rat
Source text: Primary rat renal inner medullary collecting duct (IMCD) cells were obtained and cultured as previously described. AQP2 was detected with specific rabbit (H27 antibody) and secondary Cy3-coupled antibodies, and F-actin was visualized with Alexa Fluor 647-Phalloidin by laser scanning microscopy (LSM780; Zeiss Jena, Germany) as described.
Fig 8 Scaff10-8 promotes the redistribution of AQP2 to the plasma membrane of primary IMCD cells, which is independent of cAMP elevation and associated with depolymerization of F-actin. (A) Upper panel. IMCD cells were treated with DMSO (1%; control), the solvent of Scaff10-8, or forskolin (10 μM, 30 min) to stimulate cAMP synthesis. Lower panels: The cells were treated for 1 hour with Scaff10-8 (30 μM) alone (control) or with Scaff10-8 and forskolin. Forskolin (10 μM) was added for the final 30 min of Scaff10-8 incubation. AQP2 (green) was detected with specific primary and Cy3-coupled secondary antibodies, F-actin (red) with Alexa Fluor 647-Phalloidin and nuclei with DAPI (blue). Signals were visualized using a laser scanning microscope. Representative images are shown. n = 3. The magnified views were derived from the indicated boxes. (B) The signal intensities arising from intracellular and plasma membrane AQP2 were recorded, related to nuclear signal intensities, and the ratios of plasma membrane to intracellular fluorescence signal intensities were calculated (n = 30 cells per condition). Ratios > 1 indicate a predominant localization of AQP2 at the plasma membrane. Statistically significant differences were calculated using one-way ANOVA with posthoc Bonferroni. Mean ± SEM; *, p ≤ 0.05; *** p ≤ 0.001.

His6-GST fusion protein = His6-GST fusion protein (Schistosoma japonicum, UniProt P08515); test: HTRF control assay with His6-GST fusion protein; format: binding; conditions: control for interference with tags or antibodies
Sequence of His6-GST fusion protein (P08515 whole entry, the tested form may be a part): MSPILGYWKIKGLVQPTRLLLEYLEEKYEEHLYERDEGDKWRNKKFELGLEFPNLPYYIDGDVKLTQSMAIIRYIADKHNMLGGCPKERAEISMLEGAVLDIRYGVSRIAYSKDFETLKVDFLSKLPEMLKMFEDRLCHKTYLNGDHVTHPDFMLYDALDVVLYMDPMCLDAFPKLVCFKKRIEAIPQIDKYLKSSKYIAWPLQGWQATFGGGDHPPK
Description: The assay was essentially carried out as described. Scaff10 derivatives were added to His6-AKAP-Lbc/DHPH protein (250 nM final concentration) in HTRF buffer (PBS; 4 mM MgCl2; 0.05% Tween 20) in 384 well plates (Proxiplate-384 Plus, white, #6008289; Perkin Elmer LAS, Rodgau, Germany). Concentrations of Scaff10 derivatives ranged between 1.56–200 μM (2% DMSO final concentration); HTRF buffer with 2% DMSO served as a control. GST-RhoA (30 nM final concentration) in HTRF buffer and anti-GST antibody coupled to terbium (donor) and anti-His6-tag antibody coupled to XL665 (acceptor) were added to all wells (final antibody concentration: 2 μg/ml). After 1 h incubation at room temperature in the dark, FRET signals were recorded at 620 and 665 nm using a Genios Pro plate reader (Tecan Austria GmbH, Grödig, AT) and the ratios of […] to 620 nm were calculated. Wells containing no compound were set to 100% interaction of AKAP-Lbc/DHPH with RhoA, wells containing GST-RhoA only (without His6-AKAP-Lbc/DHPH) were set to 0% interaction. To exclude any interference of the tags and/or antibodies with Scaff10 derivatives, a His6-GST fusion protein replaced the two tagged proteins in a control assay. Wells containing His6-GST fusion protein were set to 100% interaction of His6-GST, wells containing no fusion protein were set to 0% interaction.

## COc1ccc(-c2coc3cc4oc(=O)c(CCC(=O)O)c(C)c4cc23)cc1 [Scaff10-8, 3-[3-(4-Methoxyphenyl)-5-methyl-7-oxo-furo[3,2-g]chromen-6-yl] propanoic acid]
[1]; 1 h
  RhoA activity: decreased RhoA activity
[1]; 1 h plus forskolin 30 μM, 30 min
  effect on RhoA inhibition by forskolin: did not significantly enhance
[2]; 30 μM, 1 h plus forskolin
  effect on forskolin-induced redistribution of AQP2: did not enhance the forskolin-induced redistribution
[2]; Scaff10-8 30 μM alone, forskolin alone
  F-actin: F-actin also decreased
[2]; Scaff10-8 30 μM, 1 h, no forskolin, forskolin 10 μM, 30 min
  localization of AQP2: caused the translocation of AQP2 to the plasma membrane
[2]; Scaff10-8 plus forskolin
  effect of forskolin on F-actin: did not influence
His6-GST fusion protein
  interaction with His-GST fusion protein: does not interact
